According to PubChem BioAssay (NCI):
Where “and” joins values, the source holds several entries; their conditions need not be identical. Equal values may be shown once.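 48-hour exposure; five concentrations; linearly interpolated endpoints. GI50 is the concentration that inhibits growth by half. TGI marks complete inhibition of growth.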

Test system: MDA-MB-468 breast
Assay: DTP human tumour cell line panel, 48 h

Structure (SMILES) | GI50 | TGI
CC(=O)N[C@H](C)[C@@H](O)[C@@H](C)[C@@H]1OC(=O)/C=C/C=C(C)\C=C\[C@]2(C)C[C@@H](NS(C)(=O)=O)C=C[C@@H]2/C=C(C)/C=C/[C@H]1C | 0.00245 µM and 0.00435 µM | 2.12 µM and 7.39 µM
O=c1cc(-c2ccc(Cl)cc2)[nH]c2ccccc12 | 18.6 µM | > 100 µM
